{"source": "patent US20240385180A1", "about": "“PRODUCTION OF ORGANOID DERIVED FROM CTC OF SMALL CELL LUNG CANCER PATIENT, AND IGF1R INHIBITOR AS A MOLECULAR TARGET DRUG FOR SMALL CELL LUNG CANCER” (KEIO UNIVERSITY, priority 2021, published 2024)", "key": {"[1]": {"tested_on": "IGF-dependent small cell lung cancer organoids", "assay": "In vitro apoptosis assay (Annexin V-FITC / propidium iodide flow cytometry)", "assay_type": "cell-based, human", "details": "1 μM, cultured for 5 days, vs DMSO", "protocol": "An IGF1R inhibitor was added to the medium of small cell lung cancer organoids, and the occurrence of apoptosis was measured. First, a small cell lung cancer organoid was dissociated into a single cell using TrypLE Express (Thermo Fisher Scientific), further, filtered using a 20 μm cell strainer. Next, add 5×10^4 cells per well were seeded to a […], and cultured for 5 days in the presence of 1 μM IGF1R inhibitor or 1 μM FGFR inhibitor. DMSO was added to the control cell culture medium. Subsequently, using a commercially available kit (product name “TACS Annexin V-FITC Apoptosis Detection Kit”, R&D System), the induction of apoptosis was measured by flow cytometry using the BD FACSCalibur system (Becton Dickinson). FIG. 10 is a graph showing the results of the flow cytometry. In FIG. 10, the propidium iodide-positive and Annexin V-positive cells are the cells in which apoptosis was induced."}, "[2]": {"tested_on": "IGF-dependent small cell lung cancer organoids", "assay": "Effect of IGF1R inhibitor in vitro: number of living cells (CellTiter-Glo)", "assay_type": "cell-based, human", "details": "0.1, 1, 10, 100 μM in complete medium, fifth day after adding the drug, vs DMSO", "method": "An IGF1R inhibitor was added to the medium of small cell lung cancer organoids, and the effect on the growth of small cell lung cancer organoids was investigated. As small cell lung cancer organoids, a plurality of types of each of IGF-dependent small cell lung cancer organoid lines and IGF-independent small cell lung cancer organoid lines were used. Furthermore, linsitinib (CAS number: 867160-71-2) was used as an IGF1R inhibitor. In addition, the number of living cells was measured using a commercially available kit (product name “CellTiter-Glo”, Promega). A small cell lung cancer organoid was dissociated into a single cell using TrypLE Express (Thermo Fisher Scientific), and further filtered using a 20 μm cell strainer. Then, 3×10^3 per well cells were seeded and cultured in complete medium added with 0.1, 1, 10, and 100 μM lincitinib. In addition, as a control, a group in which dimethyl sulfoxide (DMSO), which was used as a solvent for linsitinib, was added was also prepared. The number of living cells was measured on the fifth day after adding the drug."}, "[3]": {"tested_on": "KOR457 line (ASCL1 positive subtype, IGF-independent small cell lung cancer organoid)", "assay": "Effect of IGF1R inhibitor in vivo: tumor volume in mice transplanted with KOR457 line", "details": "KOR457 (ASCL1-positive, IGF-independent) subcutaneous in NOD/Shi-scid, IL-2Rγ mice; 50 mg/kg once a day, 5 days a week, 5 weeks; vs vehicle", "protocol": "(§1) Specifically, first, small cell lung cancer organoids (KOR317 line and KOR457 line) were peeled off from Matrigel (registered trademark) using cell recovery solution (BD Bioscience). The peeled small cell lung cancer organoids were kept on ice for 30 minutes while being loosened by pipetting every 10 minutes. Next, approximately 1×10^5 of respective small cell lung cancer organoids was resuspended in about 50 μL of Matrigel, and the respective suspensions was subcutaneously injected into mice. As the mice, 6-10 weeks old NOD/Shi-scid, IL-2Rγ mice were used. Once the tumor diameter (long×short×height/2) was approximately 100-150 mm^3, the subjects were randomly divided into a drug administration group and a placebo treatment group. Each group was set as n≥3. Subsequently, linsitinib (50 mg/kg) was administered to the drug administration group, and vehicle was administered to the placebo treatment group once a day, 5 days a week, for a total of 5 weeks. Linsitinib was dissolved in 30% PEG400-0.5% tween80-5% propylene glycol (vehicle) and administered. Tumor diameter (major axis×short axis×height/2) was measured once a week."}, "[4]": {"tested_on": "KOR317 line (YAP1 positive subtype, IGF-dependent small cell lung cancer organoid)", "assay": "Effect of IGF1R inhibitor in vivo: tumor volume in mice transplanted with KOR317 line", "details": "KOR317 (YAP1-positive, IGF-dependent) subcutaneous in NOD/Shi-scid, IL-2Rγ mice; 50 mg/kg once a day, 5 days a week, 5 weeks; vs vehicle", "protocol": "as §1"}}}
{"smiles": "C[C@]1(O)C[C@@H](c2nc(-c3ccc4ccc(-c5ccccc5)nc4c3)c3c(N)nccn32)C1", "note": "[IGF1R inhibitor, linsitinib]", "values": [{"measurement": "induction of apoptosis (propidium iodide-positive and Annexin V-positive cells)", "setting": "[1]", "result": "induces apoptosis"}, {"measurement": "growth of organoids (number of living cells)", "setting": "[2]", "result": "inhibits the growth"}, {"measurement": "tumor growth (tumor volume over time)", "setting": "[3]", "result": "no effect"}, {"measurement": "tumor growth (tumor volume over time)", "setting": "[4]", "result": "tumor growth was suppressed"}]}
